Experimental data reported in patent publication US8815305B2, “Composition containing a plant extract and process for producing same” (BASF Beauty Care Solutions France S.A.S., priority 2003, dated 2014).

What was measured:
[1] = Toxicity tests and growth tests on human fibroblasts (cellular proteins, Bradford); format: cell-based; conditions: human
human fibroblasts [2] = test: as above; format: cell-based
human fibroblasts [3] = test: Survival efficacy test on human fibroblasts (DNA, ATP, proteins, GSH); format: cell-based; conditions: for ATP / DNA / GSH/proteins / Proteins: quiescent fibroblasts, 3 days
Description: Human fibroblasts were inoculated in a standard medium of a cell culture with foetal calf serum (FCS). After an incubation of 3 days the cells became quiescent, then the growth medium was exchanged for a standard medium with a range of concentrations for each ingredient to be tested. After an incubation of 3 days, the number of viable cells was determined by evaluation of the levels of and the rates of cellular DNA (fluorescent probe), ATP (enzymatic method), proteins (Bradford's method) and GSH which is evaluated according to the method of Hissin (Hissin P. J., Hilf R. A, fluorometric method for determination of oxidised and reduced Glutathione in tissues. Analytical Biochemistry (1977) volume 74, pages 214-226).

human fibroblasts [4] = test: Cytophotoprotection of human fibroblasts against UV-A radiation; format: cell-based
Description: The cytoprotection against UV-A radiation was evaluated by a test on human fibroblasts because UV-A radiation penetrates through the epidermis until the derma where it induces oxidative stress (DALLE CARBONARE M, PATHAK M A; Skin photosensitising agents and the role of reactive oxygen species in photoaging; JOURNAL OF PHOTOCHEMISTRY & PHOTOBIOLOGY, 1992, 14, 1-2, pages 105-124. This oxidative stress was evaluated in vitro by measuring of the level of released MDA (malonaldehyde) and of intracellular GSH (reduced glutathione) (Morliere P., Moisan A., Santus R., Huppe G., Mazière J. C., Dubertret L.: UV-A induced lipid peroxydation in cultured human fibroblasts. Biochim. Biophys. Acta, 1084, 3, pages 261-269 (1991)).
Expressed in keywords, the experiments were carried out as follows: • Inoculation of human fibroblasts within a growth medium (standard medium with foetal calf serum (FCS) • Incubation 3 days at 37° C., CO2=5% • Exchange of growth medium with balanced salt solution • Irradiation of fibroblasts by UV-A: 20 J/cm^2 (black light TFWN lamp) (A TFWN lamp is a certain type of marketed sunlamp well known to the skilled artisan) • Exchange of growth medium with standard medium without FCS but containing ingredient to be tested • Incubation 3 days at 37° C., CO2=5% • Recovery of supernatant medium for spectrophotometric determination of the malonaldialdehde (or MDA) rate • Cells number determined by evaluation of the levels of cellular proteins (Bradford's method) and the rate of cellular GSH was evaluated according to the method of Hissin

human keratinocytes = test: Cytophotoprotection of human keratinocytes against UV-B radiation; format: cell-based; conditions: for Cell number, % against control / Released LDH, % against control / Released PGE2, % against control: UVB
From the text: UV-B irradiation (from 280 to 320 nm) of the human skin induces a cutaneous inflammation mainly by activation of an enzyme (phospholipase A2 or PLA2), which releases arachidonic acid from the cell membranes of the cells of the skin (V. A. De Leo, D. Hanson, I. B. Weinstein and L. C. Harber—Ultraviolet radiation stimulates the release of arachidonic acid from mammalian cells in culture—Photochemistry and Photobiology (1985) volume 41N°1 pages 51-56). Then other specific enzymes (so called cyclo-oxygenases) transform arachidonic acid in active components called prostaglandines (or PG) which are secreted out of the cells. The fixation of certain prostaglandins (PGE2) on specific skin receptors is followed by redness and swelling as after a sunburn. On cultured human cells, these UV-B effects on cell membranes are associated with a release in the supernatant medium of a cytoplasmic enzyme, the Lactate Dehydrogenase or LDH (B. Bonnekoh, B. Farkas, J. Geisel and G. Mahrle—Lactate dehydrogenase release as an indicator of dithranol-induced membrane injury in cultured human keratinocytes. Dermatological research (1990) volume 282, pages 325-331).
Expressed in keywords, the experiments were carried out as follows: • Inoculation of human keratinocytes within growth medium (standard medium with fetal calf serum (FCS) • Incubation 3 days at 37° C., CO2=5% • Exchange of growth medium with balanced salt solution containing ingredient to be tested • Irradiation of keratinocytes by UV-B: 50 mJ/cm^2 (DUKE GL40E lamp) (A DUKE GL40E lamp is a certain type of marketed sunlamp well known to the skilled artisan) • Incubation 1 day at 37° C., CO2=5% • Numeration of adherent cells after trypsination (trypsination is a process based on the use of the enzyme trypsine which is a protease allowing the retrieval of cell from the support in order to seed the cells into a bigger flask and therefore to expand the cell culture) • Recovery of supernatant medium for spectrophotometric determination of the activity of LDH, and PGE2 by ELISA method

elastase from pancreas = elastase from pancreas (Sus scrofa, UniProt P00772); test: Elastase inhibition, Elastin-Congo red as substrate; format: biochemical
elastase from pancreas, sequence (P00772 27-266): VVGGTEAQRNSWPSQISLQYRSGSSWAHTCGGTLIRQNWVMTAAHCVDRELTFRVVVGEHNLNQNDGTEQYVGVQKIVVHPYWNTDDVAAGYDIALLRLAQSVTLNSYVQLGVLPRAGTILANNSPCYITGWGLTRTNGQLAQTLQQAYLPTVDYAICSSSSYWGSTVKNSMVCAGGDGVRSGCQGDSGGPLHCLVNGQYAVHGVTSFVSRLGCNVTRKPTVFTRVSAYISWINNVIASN
Description: This test was carried out with an elastase from pancreas on Elastin labelled with Congo red. The time of incubation was 30 minutes at room temperature and the optical density of released Congo red was recorded after centrifugation at a wavelength of 520 nm. al-antitrypsine was used as positive reference.
The following table summarizes the results expressed as EC 50 in % w/v. (EC 50 in % w/v is the concentration in % w/v which reduces the enzymatic activity by 50%.)

[5] = biological target: T1, human leucocyte elastase (HLE) (Homo sapiens, UniProt P08246); conditions: cited from earlier work
T1 sequence (P08246 30-267): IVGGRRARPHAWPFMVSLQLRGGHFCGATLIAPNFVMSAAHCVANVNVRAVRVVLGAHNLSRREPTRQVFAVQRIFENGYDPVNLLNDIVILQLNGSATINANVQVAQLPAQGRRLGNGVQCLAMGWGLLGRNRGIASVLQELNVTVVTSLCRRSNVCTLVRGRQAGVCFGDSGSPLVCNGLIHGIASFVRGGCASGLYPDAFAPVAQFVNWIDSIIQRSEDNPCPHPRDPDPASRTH

[6] = system: skin chronic inflammation; conditions: in vivo; cited from earlier work

**Q.** For `CC1(C)CC[C@]2(CO)CC[C@]3(C)C(=CC[C@@H]4[C@@]5(C)CC[C@H](O)C(C)(C)[C@@H]5CC[C@]43C)[C@@H]2C1` [erythrodiol], which viability at 3 days, 0.0001 % [1] is on record?
**A.** 104%

**Q.** And the viability at 3 days, 0.0003 % [1]?
**A.** 105%

**Q.** And the viability at 3 days, 0.001 % [1]?
**A.** 43%

**Q.** And the viability at 3 days, 0.003 % [1]?
**A.** 34%

**Q.** And the “LD50 (% w/v)” value (human fibroblasts [2]; human fibroblasts, 3 days incubation)?
**A.** 0.0009% w/v

**Q.** And the “safe at concentrations up to” value (human fibroblasts [2]; human, 3 days)?
**A.** up to 0.0003%

**Q.** And the ATP (human fibroblasts [3]; 0.00001% w/v)?
**A.** 107%

**Q.** What about the DNA (human fibroblasts [3]; 0.00001% w/v) of the same molecule?
**A.** 96%

**Q.** What about the GSH/proteins (human fibroblasts [3]; 0.00001% w/v) of the same molecule?
**A.** 120%

**Q.** And the Proteins (human fibroblasts [3]; 0.00001% w/v)?
**A.** 100%

**Q.** What about the ATP (human fibroblasts [3]; 0.00003% w/v) of the same molecule?
**A.** 99%

**Q.** And the DNA (human fibroblasts [3]; 0.00003% w/v)?
**A.** 108%

**Q.** What about the GSH/proteins (human fibroblasts [3]; 0.00003% w/v) of the same molecule?
**A.** 141%

**Q.** What about the Proteins (human fibroblasts [3]; 0.00003% w/v) of the same molecule?
**A.** 97%

**Q.** What about the ATP (human fibroblasts [3]; 0.0001% w/v) of the same molecule?
**A.** 66%

**Q.** And the DNA (human fibroblasts [3]; 0.0001% w/v)?
**A.** 78%

**Q.** What about the GSH/proteins (human fibroblasts [3]; 0.0001% w/v) of the same molecule?
**A.** 101%

**Q.** And the Proteins (human fibroblasts [3]; 0.0001% w/v)?
**A.** 91%

**Q.** And the ATP (human fibroblasts [3]; 0.0003% w/v)?
**A.** 73%

**Q.** What about the DNA (human fibroblasts [3]; 0.0003% w/v) of the same molecule?
**A.** 59%

**Q.** And the GSH/proteins (human fibroblasts [3]; 0.0003% w/v)?
**A.** 88%

**Q.** And the Proteins (human fibroblasts [3]; 0.0003% w/v)?
**A.** 83%

**Q.** And the “amount of GSH synthesized by human fibroblasts” value (human fibroblasts [3]; only at a concentration of 0.00003%)?
**A.** modified

**Q.** And the “protection of human fibroblasts from toxic UVA effects” value (human fibroblasts [4])?
**A.** moderately protected

**Q.** What about the “GSH/protein, % against control” value (human fibroblasts [4]; UV-A 20 J/cm^2, dose 0.0001%) of the same molecule?
**A.** 94%

**Q.** And the “Released MDA, % against control” value (human fibroblasts [4]; UV-A 20 J/cm^2, dose 0.0001%)?
**A.** 81%

**Q.** What about the “cell's protein, % against control” value (human fibroblasts [4]; UV-A 20 J/cm^2, dose 0.0001%) of the same molecule?
**A.** 139%

**Q.** What about the “GSH/protein, % against control” value (human fibroblasts [4]; UV-A 20 J/cm^2, dose 0.0003%) of the same molecule?
**A.** 22%

**Q.** And the “Released MDA, % against control” value (human fibroblasts [4]; UV-A 20 J/cm^2, dose 0.0003%)?
**A.** 70%

**Q.** What about the “cell's protein, % against control” value (human fibroblasts [4]; UV-A 20 J/cm^2, dose 0.0003%) of the same molecule?
**A.** 42%

**Q.** What about the “UV toxic effects on the number of viable cells (cell number and released LDH)” value (human keratinocytes) of the same molecule?
**A.** not modified

**Q.** What about the “Cell number, % against control” value (human keratinocytes; dose 0.00001%) of the same molecule?
**A.** 21%

**Q.** And the “Released LDH, % against control” value (human keratinocytes; dose 0.00001%)?
**A.** 135%

**Q.** What about the “Released PGE2, % against control” value (human keratinocytes; dose 0.00001%) of the same molecule?
**A.** 135%

**Q.** And the “Cell number, % against control” value (human keratinocytes; dose 0.00003%)?
**A.** 23%

**Q.** And the “Released LDH, % against control” value (human keratinocytes; dose 0.00003%)?
**A.** 118%

**Q.** And the “Released PGE2, % against control” value (human keratinocytes; dose 0.00003%)?
**A.** 164%

**Q.** What about the “inhibition of proteases such as elastase” value (elastase from pancreas) of the same molecule?
**A.** good potential to inhibit

**Q.** And the IC50 (elastase from pancreas; 30 minutes at room temperature, Elastin-Congo red, read-out: Elastase EC 50 (concentration which reduces the enzymatic activity by 50%) (converted))?
**A.** 1.81 mM

**Q.** What about the “interaction with the ursolic acid binding site of HLE” value [5] of the same molecule?
**A.** can also interact with this binding site

**Q.** What about the “activity on chronic dermal inflammation” value [6] of the same molecule?
**A.** significantly effective
